US20160201132A1, “GENE EXPRESSION BIOMARKERS OF LAQUINIMOD RESPONSIVENESS” (Teva Pharmaceutical Industries Ltd., priority 2013, published 2016)

Test system: PBMC of RRMS patients
Test: Gene expression microarray analysis (HG-U133A-2) of PBMC from RRMS patients treated with LAQ, ancillary study to ALLEGRO
Format: in vivo, human
Source text: The goal of this ancillary study was to characterize gene expression changes and corresponding biological mechanisms induced in PBMC of RRMS patients by LAQ treatment. According to ALLEGRO clinical trial inclusion criteria, 25 patients were randomly assigned to receive LAQ (n=13, age 38.8±2.3 years, female/male ratio: 8/5) or placebo (n=12, age 37.2±3.4 years, female/male ratio: 8/4).
Peripheral blood samples were obtained from RRMS patients at baseline before start of LAQ treatment or placebo, after 0, 1, 6 and 24 month of treatment (visit 0, 1, 6 and 7 according to ALLEGRO clinical trial protocol correspondently) for gene microarray analysis.
Briefly, 1) Peripheral blood mononuclear cells (PBMC) were obtained from RRMS patients that participated in ALLEGRO and were treated daily with 0.6 mg LAQ or placebo. PBMC were subjected for gene expression analysis (HU-133A-2-Affymatrix arrays) at baseline and at 1 and 6 months of LAQ treatment; 2) Data was analyzed by Partek Genomics Solution software. Most informative genes (MIGs) were defined as those that differentiated between groups with p<0.01. Gene functional annotation, enrichment and pathway analysis were performed by Ingenuity software. For each time point, genes that changed in placebo group were excluded from further analysis; and 3) Verification of LAQ related mechanism was performed by Western blot.
PBMC were extracted from 15 ml peripheral blood, separated by Ficoll-Hypaque gradient. Total RNA was extracted using both Trizol (Invitrogen, USA) and Phase-Lock-Gel columns (Eppendorf, Germany) including a DNase digestion step. RNA integrity was assessed by RNA Experion automated electrophoresis system (Bio-Rad Laboratories, Hercules, Calif.).
Probe synthesis using 3 μg total RNA, hybridization, detection, and scanning was performed according to the standard Affymetrix, Inc. USA protocols; cDNA was synthesized using the Two-Cycle cDNA Synthesis Kit (Affymetrix, Inc., USA), and in-vitro transcription performed with the GeneChip IVT Labeling Kit (Affymetrix, Inc., USA). The biotin-labeled IVT-RNA was hybridized to HG-U133A-2 arrays containing 18,400 gene transcripts, each corresponding to 14,500 well-annotated human genes, washed in a GeneChip Fluidics Station 450 (Hewlett Packard, USA, GeneArray-™ scanner G2500A) and scanned according to the manufacturer's protocol (Affymetrix, Inc., USA).
Data analysis was performed on Partek Genomics Solution software (www.partek.com; Partek Incorporated, St. Louis, Mo.). Expression values were computed from raw CEL files by applying the Robust Multi-Chip Average (RMA) background correction algorithm. RMA correction included: 1) values background correction; 2) quintile normalization; 3) log 2 transformation; and 4) median polish summarization. The ANOVA, Repeated Measures and correlation analysis implicated in Partek software ware applied to evaluate LAQ effects. Most informative genes MIGs were defined as those that differentiated between experimental groups with p<0.01. All p-values were calculated for False Discovery Rate (FDR) multiple test correction at p=0.05.
Additionally, significance of individual genes was tested by parametric T-test and non parametric Mann-Whitney test using Bootstrapping approach based on repeated permutations of the data with 5% FDR for multiple testing.
Gene functional annotation, enrichment, and pathway analyses to identify the leading biological pathways that operated under LAQ treatment were performed by Ingenuity Pathways Analysis software (www.ingenuity.com).
ANOVA analysis was used to compare PBMC gene expression after 1, 6 or 24 month of LAQ treatment with baseline gene expression.
For each time point inventors performed analysis source of variation in dataset. (FIG. 1). Age, gender and batch effects were considered as confounders regarding LAQ or Placebo related changes. For each time point genes associated with Placebo effect were evaluated and excluded from further analysis. […]

[1] = after six months of LAQ treatment
[2] = combined 6 and 24 months vs baseline

CCN(C(=O)c1c(O)c2c(Cl)cccc2n(C)c1=O)c1ccccc1 [LAQ, 5-chloro-N-ethyl-4-hydroxy-1-methyl-2-oxo-N-phenyl-1,2-dihydroquinoline-3-carboxamide]
p, down regulation of pro-inflammatory cytokines IL-9/11/12/20/36, TNFRSF11A/B, IFNA4/8/10/17 and receptors for IL-5/13/20/22 [1]: 3*10^−3 to 9*10^−3
p, down-regulation of MMP16/24/26/28 and ADAM12/18/22 [1]: 4.95*10^−4 to 1.26*10^−3
p, suppression of CCL19 and chemokine receptor CXCR1/2 [1]: 6.79*10^−3
genes (#), Adhesion of cells (after six months of treatment): 119
genes (#), Caveolar mediated endocytosis (after six months of treatment): 13
genes (#), Cell signaling: Neurotransmission (after six months of treatment): 56
genes (#), Cellular movement: Invasion of cells (after six months of treatment): 120
genes (#), Development: Arachidonic Acid metabolism (after six months of treatment): 18
genes (#), Development: G protein Coupled Receptor Signaling (after six months of treatment): 73
genes (#), Hematological system: Coagulation system (after six months of treatment): 7
genes (#), Hematological system: Intrinsic prothrombin activation pathway (after six months of treatment): 6
genes (#), Inflammatory response: IL-12 signaling (after six months of treatment): 11
genes (#), TGFB signaling (after six months of treatment): 14
genes (#), Leukocyte Extravasation Signaling (after six months of treatment, cellular movement function): 31
genes (#), Leukocyte Extravasation Signaling (after six months of treatment, inflammatory response function): 29
# of genes p < 0.01 (LAQ related MIGs, ANOVA) [2]: 2922
Down regulated genes (LAQ related MIGs) [2]: 2911
Up-regulated genes (LAQ related MIGs) [2]: 11
Fold-Change (4.0 vs. 0.0) (gene AAK1): −1.184
Fold-Change (4.0 vs. 0.0) (gene ACSM5): −1.184
Fold-Change (4.0 vs. 0.0) (gene ACTA1): −1.184
Fold-Change (4.0 vs. 0.0) (gene AIF1): −1.179
Fold-Change (4.0 vs. 0.0) (gene AKAP9): −1.183
Fold-Change (4.0 vs. 0.0) (gene ALX4, after six months of LAQ): −1.285
Fold-Change (4.0 vs. 0.0) (gene ASCL1): −1.178
Fold-Change (4.0 vs. 0.0) (gene ATN1): −1.181
Fold-Change (4.0 vs. 0.0) (gene BCAN): −1.178
Fold-Change (4.0 vs. 0.0) (gene BCAP29): −1.18
Fold-Change (4.0 vs. 0.0) (gene C10orf81): −1.183
Fold-Change (4.0 vs. 0.0) (gene CA10): −1.181
Fold-Change (4.0 vs. 0.0) (gene CBS): −1.179
Fold-Change (4.0 vs. 0.0) (gene CLCN7): −1.177
Fold-Change (4.0 vs. 0.0) (gene CLEC4M): −1.184
Fold-Change (4.0 vs. 0.0) (gene CLN8): −1.182
Fold-Change (4.0 vs. 0.0) (gene CNOT4): −1.181
Fold-Change (4.0 vs. 0.0) (gene CYP2B6 /// CYP2B7P1, after six months of LAQ): −1.2873
Fold-Change (4.0 vs. 0.0) (gene CYR61): −1.181
Fold-Change (4.0 vs. 0.0) (gene DCBLD2): −1.18
Fold-Change (4.0 vs. 0.0) (gene DDN): −1.178
Fold-Change (4.0 vs. 0.0) (gene DHX34): −1.184
Fold-Change (4.0 vs. 0.0) (gene DNAH3): −1.184
Fold-Change (4.0 vs. 0.0) (gene DPYSL4): −1.18
Fold-Change (4.0 vs. 0.0) (gene DUOX2): −1.178
Fold-Change (4.0 vs. 0.0) (gene ESPL1, after six months of LAQ): −1.284
Fold-Change (4.0 vs. 0.0) (gene EXO1): −1.179
Fold-Change (4.0 vs. 0.0) (gene FAM188A): −1.178
Fold-Change (4.0 vs. 0.0) (gene FAM189A1): −1.183
Fold-Change (4.0 vs. 0.0) (gene GIPR): −1.1819
Fold-Change (4.0 vs. 0.0) (gene GPR12): −1.178
Fold-Change (4.0 vs. 0.0) (gene GPRIN2): −1.179
Fold-Change (4.0 vs. 0.0) (gene GRK5, after six months of LAQ): −1.289
Fold-Change (4.0 vs. 0.0) (gene GRM1): −1.181
Fold-Change (4.0 vs. 0.0) (gene GRM8): −1.182
Fold-Change (4.0 vs. 0.0) (gene HHLA1): −1.181
Fold-Change (4.0 vs. 0.0) (gene HOXC11): −1.181
Fold-Change (4.0 vs. 0.0) (gene HS3ST3B1): −1.178
Fold-Change (4.0 vs. 0.0) (gene ICMT): −1.183
Fold-Change (4.0 vs. 0.0) (gene IFNA17): −1.18
Fold-Change (4.0 vs. 0.0) (gene IGHG1): −1.183
Fold-Change (4.0 vs. 0.0) (gene IHH): −1.179
Fold-Change (4.0 vs. 0.0) (gene ITGB4): −1.181
Fold-Change (4.0 vs. 0.0) (gene KCND3): −1.184
Fold-Change (4.0 vs. 0.0) (gene KRT5, after six months of LAQ): −1.285
Fold-Change (4.0 vs. 0.0) (gene LAMA3): −1.181
Fold-Change (4.0 vs. 0.0) (gene LAMC2): −1.18
Fold-Change (4.0 vs. 0.0) (gene MALL, after six months of LAQ): −1.286
Fold-Change (4.0 vs. 0.0) (gene MGC2889): −1.18
Fold-Change (4.0 vs. 0.0) (gene MGC31957): −1.183
Fold-Change (4.0 vs. 0.0) (gene MORN1): −1.178
Fold-Change (4.0 vs. 0.0) (gene MYOZ1): −1.183
Fold-Change (4.0 vs. 0.0) (gene NAGLU): −1.184
Fold-Change (4.0 vs. 0.0) (gene NECAB2): −1.179
Fold-Change (4.0 vs. 0.0) (gene NNAT): −1.184
Fold-Change (4.0 vs. 0.0) (gene NOVA2): −1.18
Fold-Change (4.0 vs. 0.0) (gene NOX1): −1.179
Fold-Change (4.0 vs. 0.0) (gene NPR1): −1.1842
Fold-Change (4.0 vs. 0.0) (gene NR1I2): −1.182
Fold-Change (4.0 vs. 0.0) (gene NTRK2): −1.183
Fold-Change (4.0 vs. 0.0) (gene OR1A2): −1.179
Fold-Change (4.0 vs. 0.0) (gene OR2J2): −1.18
Fold-Change (4.0 vs. 0.0) (gene OR3A3): −1.182
Fold-Change (4.0 vs. 0.0) (gene PACRG): −1.182
Fold-Change (4.0 vs. 0.0) (gene PAH): −1.182
Fold-Change (4.0 vs. 0.0) (gene PARD3, after six months of LAQ): −1.288
Fold-Change (4.0 vs. 0.0) (gene PDX1): −1.179
Fold-Change (4.0 vs. 0.0) (gene PKNOX2): −1.183
Fold-Change (4.0 vs. 0.0) (gene POLQ): −1.179
Fold-Change (4.0 vs. 0.0) (gene POPDC3): −1.184
Fold-Change (4.0 vs. 0.0) (gene PRDM11): −1.183
Fold-Change (4.0 vs. 0.0) (gene PRKCE): −1.179
Fold-Change (4.0 vs. 0.0) (gene PRKG1): −1.181
Fold-Change (4.0 vs. 0.0) (gene PRSS7): −1.18
Fold-Change (4.0 vs. 0.0) (gene PURA): −1.179
Fold-Change (4.0 vs. 0.0) (gene RAB11B): −1.18
Fold-Change (4.0 vs. 0.0) (gene RAD51): −1.18
Fold-Change (4.0 vs. 0.0) (gene RELN): −1.18
Fold-Change (4.0 vs. 0.0) (gene RET): −1.183
Fold-Change (4.0 vs. 0.0) (gene RUNX2): −1.177
Fold-Change (4.0 vs. 0.0) (gene SERPINB3): −1.178
Fold-Change (4.0 vs. 0.0) (gene SLC6A11): −1.181
Fold-Change (4.0 vs. 0.0) (gene SLC25A10): −1.182
Fold-Change (4.0 vs. 0.0) (gene SLC30A3): −1.184
Fold-Change (4.0 vs. 0.0) (gene SLC37A4): −1.181
Fold-Change (4.0 vs. 0.0) (gene SLC39A2): −1.178
Fold-Change (4.0 vs. 0.0) (gene SLCO5A1): −1.181
Fold-Change (4.0 vs. 0.0) (gene SOD3): −1.181
Fold-Change (4.0 vs. 0.0) (gene SOX15, after six months of LAQ): −1.285
Fold-Change (4.0 vs. 0.0) (gene STRA6): −1.181
Fold-Change (4.0 vs. 0.0) (gene TACR2): −1.18
Fold-Change (4.0 vs. 0.0) (gene TRIO): −1.1816
Fold-Change (4.0 vs. 0.0) (gene TTLL5): −1.182
Fold-Change (4.0 vs. 0.0) (gene TTYH1): −1.177
Fold-Change (4.0 vs. 0.0) (gene VPS37B, after six months of LAQ): −1.288
Fold-Change (4.0 vs. 0.0) (gene VSNL1): −1.18
Fold-Change (4.0 vs. 0.0) (gene XPNPEP2): −1.183
Fold-Change (4.0 vs. 0.0) (gene ZNF215): −1.182
Fold-Change (4.0 vs. 0.0) (gene ZNF280B): −1.177
Fold-Change (4.0 vs. 0.0) (gene ZNF484): −1.1781
suppressed molecules associated with different mechanisms of inflammatory response (of 354 genes affected after 1 month of treatment): 50
down-regulated genes related to cellular movement mechanisms (of 1564 genes that passed FDR, more than 6 months (combined 6 and 24 months)): 305
share of significantly changed genes that were down regulated (one month of treatment): 98%
genes related to suppression of Cellular movement functions (out of 1562 genes, 6 months of treatment): 260
share of significantly changed genes that were down regulated (six months of treatment): 99%
